In patent US20220378923A1, “BET DEGRADER” (KYOWA KIRIN CO., LTD., priority 2019, published 2022):

Test system: DCAF16 KO SU-DHL-4 cells
Assay: Inhibitory effect on cell viability using SU-DHL-4 DCAF16 knock out (KO) cell line (Test Example 6)
Assay type: cell-based, human
Settings: for Activity Attenuation Ratio: (SU-DHL-4 DCAF16 KO IC50)/(SU-DHL-4 WT IC50); for IC50: DCAF16 KO SU-DHL-4 cells, 72 hours, Cell Counting Kit-8, 50% inhibition of cell viability
Outline: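 SU-DHL-4 DLBCL cells carrying lentiviral Cas9 plus DCAF16-targeting sgRNA (three KO strains; non-targeting control strain), seeded 2000 cells/well, pre-cultured 18–25 h, then given 9-step compound dilutions (0.1% DMSO final) for 72 h at 37° C. Viability read by CCK-8 colorimetric assay.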

Compound | Activity Attenuation Ratio | IC50 (Homo sapiens) | IC50
CCC(=O)N1c2ccccc2[C@H](Nc2ccc(NC(=O)CCCC(=O)Nc3ccc(N[C@@H]4C[C@H](C)N(C(=O)CC)c5ccccc54)cc3)cc2)C[C@@H]1C [Compound 6k, N^1,N^5-Bis(4-(((2S,4R)-2-methyl-1-propionyl-1,2,3,4-tetrahydroquinolin-4-yl)amino)phenyl)glutaramide] | 520 | 31.2 nM | 
CCC(=O)N1c2ccccc2[C@H](Nc2ccc(NC(=O)CCCC(=O)NC3CCC(N[C@@H]4C[C@H](C)N(C(=O)CC)c5ccccc54)CC3)cc2)C[C@@H]1C (stereo partly drawn) [Compound 7o, N^1-((1R,4r)-4-(((2S,4R)-2-Methyl-1-propionyl-1,2,3,4-tetrahydroquinolin-4-yl)amino)cyclohexyl)-N^5-(4-(((2S,4R)-2-methyl-1-propionyl-1,2,3,4-tetrahydroquinolin-4-yl)amino)phenyl)glutaramide] | 750 |  | 397 nM
CCC(=O)N1c2ccccc2[C@H](Nc2ccc(NC(=O)N3CCN(C(=O)C4CCC(N[C@@H]5C[C@H](C)N(C(=O)CC)c6ccccc65)CC4)CC3)cc2)C[C@@H]1C (stereo partly drawn) [Compound 7p, 4-((1R,4r)-4-(((2S,4R)-2-Methyl-1-propionyl-1,2,3,4-tetrahydroquinolin-4-yl)amino)cyclohexane-1-carbonyl)-N-(4-(((2S,4R)-2-methyl-1-propionyl-1,2,3,4-tetrahydroquinolin-4-yl)amino)phenyl)piperazine-1-carboxamide] | 766 |  | 293 nM
CCC(=O)N1c2ccccc2[C@H](Nc2ccc(-c3nnc(CNC(=O)[C@H]4CC[C@H](N[C@@H]5C[C@H](C)N(C(=O)CC)c6ccccc65)CC4)o3)cc2)C[C@@H]1C [Compound 7q, (1R,4R)-4-(((2S,4R)-2-Methyl-1-propionyl-1,2,3,4-tetrahydroquinolin-4-yl)amino)-N-((5-(4-(((2S,4R)-2-methyl-1-propionyl-1,2,3,4-tetrahydroquinolin-4-yl)amino)phenyl)-1,3,4-oxadiazol-2-yl)methyl)cyclohexane-1-carboxamide] | 850 |  | 79.7 nM
CCC(=O)N1c2ccccc2[C@H](Nc2ccc(NC(=O)CNC(=O)N[C@H]3CC[C@H](N[C@@H]4C[C@H](C)N(C(=O)CC)c5ccccc54)CC3)cc2)C[C@@H]1C [Compound 8j, 2-(3-((1R,4R)-4-(((2S,4R)-2-Methyl-1-propionyl-1,2,3,4-tetrahydroquinolin-4-yl)amino)cyclohexyl)ureido)-N-(4-(((2S,4R)-2-methyl-1-propionyl-1,2,3,4-tetrahydroquinolin-4-yl)amino)phenyl)acetamide] | 767 |  | 228 nM
CCC(=O)N1c2ccccc2[C@H](Nc2ccc(C(=O)N3CC(C(=O)N[C@H]4CC[C@H](N[C@@H]5C[C@H](C)N(C(=O)CC)c6ccccc65)CC4)C3)cc2)C[C@@H]1C [Compound 8r, 1-(4-(((2S,4R)-2-Methyl-1-propionyl-1,2,3,4-tetrahydroquinolin-4-yl)amino)benzoyl)-N-((1R,4R)-4-(((2S,4R)-2-methyl-1-propionyl-1,2,3,4-tetrahydroquinolin-4-yl)amino)cyclohexyl)azetidine-3-carboxamide] | 224 |  | 67.4 nM
CCC(=O)N1c2ccccc2[C@H](Nc2ccc(NC(=O)CCCC(=O)Nc3ccc(N[C@@H]4C[C@H](C)N(C(=O)CC)c5ccccc54)nc3)cc2)C[C@@H]1C [Compound 10k, N^1-(4-(((2S,4R)-2-Methyl-1-propionyl-1,2,3,4-tetrahydroquinolin-4-yl)amino)phenyl)-N^5-(6-(((2S,4R)-2-methyl-1-propionyl-1,2,3,4-tetrahydroquinolin-4-yl)amino)pyridin-3-yl)glutaramide] | 672 | 143 nM | 
CCC(=O)N1c2ccccc2[C@H](Nc2ccc(-c3nnc(CNC(=O)C4CCN(Cc5cc(O)cc(-c6c(C)noc6C)c5)CC4)o3)cc2)C[C@@H]1C [Compound 12a, 1-(3-(3,5-Dimethylisoxazol-4-yl)-5-hydroxybenzyl)-N-((5-(4-(((2S,4R)-2-methyl-1-propionyl-1,2,3,4-tetrahydroquinolin-4-yl)amino)phenyl)-1,3,4-oxadiazol-2-yl)methyl)piperidine-4-carboxamide] | 693 | 354 nM | 
CCC(=O)N1c2ccccc2[C@H](Nc2ccc(NC(=O)C3CN(C(=O)C4CCN(Cc5cc(O)cc(-c6c(C)noc6C)c5)CC4)C3)cc2)C[C@@H]1C [Compound 12b, 1-(1-(3-(3,5-Dimethylisoxazol-4-yl)-5-hydroxybenzyl)piperidine-4-carbonyl)-N-(4-(((2S,4R)-2-methyl-1-propionyl-1,2,3,4-tetrahydroquinolin-4-yl)amino)phenyl)azetidine-3-carboxamide] | >3526 | > 10000 nM | 
CCC(=O)N1c2ccccc2[C@H](Nc2ccc(NC(=O)CCCC(=O)NC3CCN(Cc4cc(O)cc(-c5c(C)noc5C)c4)CC3)cc2)C[C@@H]1C [Compound 12c, N^1-(1-(3-(3,5-Dimethylisoxazol-4-yl)-5-hydroxybenzyl)piperidin-4-yl)-N^5-(4-(((2S,4R)-2-methyl-1-propionyl-1,2,3,4-tetrahydroquinolin-4-yl)amino)phenyl)glutaramide] | >44436 | > 10000 nM | 
CCC(=O)N1c2ccccc2[C@H](Nc2ccc(SCCNC(=O)c3ccc(C4=N[C@@H](CC(=O)OCCN(C)C)c5nnc(C)n5-c5sc(C)c(C)c54)cc3)cc2)C[C@@H]1C [Compound 13a, 2-(Dimethylamino)ethyl 2-((S)-2,3,9-trimethyl-4-(4-((2-((4-(((2S,4R)-2-methyl-1-propionyl-1,2,3,4-tetrahydroquinolin-4-yl)amino)phenyl)thio)ethyl)carbamoyl)phenyl)-6H-thieno[3,2-f][1,2,4]triazolo[4,3-a][1,4]diazepin-6-yl)acetate] | 35 | 9.31 nM | 
CCC(=O)N1c2ccccc2[C@H](Nc2ccc(C(=O)NCCCNC(=O)c3ccc(C4=N[C@@H](CC(=O)OC5CCC(O)CC5)c5nnc(C)n5-c5sc(C)c(C)c54)cc3)cc2)C[C@@H]1C (stereo partly drawn) [Compound 13d, 4-Hydroxycyclohexyl 2-((S)-2,3,9-trimethyl-4-(4-((3-(4-(((2S,4R)-2-methyl-1-propionyl-1,2,3,4-tetrahydroquinolin-4-yl)amino)benzamide)propyl)carbamoyl)phenyl)-6H-thieno[3,2-f][1,2,4]triazolo[4,3-a][1,4]diazepin-6-yl)acetate] | 52 |  | 27.8 nM
CCC(=O)N1c2ccccc2[C@H](Nc2ccc(C(=O)NCCCNC(=O)c3ccc(C4=N[C@@H](CC(=O)OCCCOC)c5nnc(C)n5-c5sc(C)c(C)c54)cc3)cc2)C[C@@H]1C [Compound 13h, 3-Methoxypropyl 2-((S)-2,3,9-trimethyl-4-(4-((3-(4-(((2S,4R)-2-methyl-1-propionyl-1,2,3,4-tetrahydroquinolin-4-yl)amino)benzamide)propyl)carbamoyl)phenyl)-6H-thieno[3,2-f][1,2,4]triazolo[4,3-a][1,4]diazepin-6-yl)acetate] | 76 |  | 22.8 nM
